According to patent US20200390767A1, “Formulations of 4-(7-Hydroxy-2-isopropyl-4-oxo-4H-quinazolin-3-yl)-benzonitrile” (NOVARTIS AG, priority 2019, published 2020):
Where “and” joins values, the source holds several entries; their conditions need not be identical. Equal entries are not always repeated. Where two headings read alike, the source gives them in different places.

Assays:
epithelial wound = test: PRK clinical study, size of epithelial defect by slit lamp exam; format: in vivo, human
Source text: (§1) Adverse events and serious adverse events included an assessment of both systemic and ocular assessments. Systemic safety assessments included regular assessments of height and weight, vital signs, reporting medication errors including misuse/abuse, pregnancy reporting and early phase safety monitoring. The misuse/abuse, pregnancy reporting and early phase safety monitoring were not assessed for the study. Ocular safety assessments included the following: • Best-corrected visual acuity (BCVA) and uncorrected visual acuity (UCVA): Was measured at each visit using an ETDRS visual acuity chart at 4 meters (13 feet) or 1 meter (for patients that cannot read the 4 meter chart). The BCVA scoring was done based on the number of correctly read letters plus 30. If visual acuity was so poor that the patient could not read any of the largest letters at 1 meter, count fingers and hand movement vision and light perception was tested. • Intraocular Pressure (TOP): IOP measurements were conducted with applanation tonometry or Tonopen. • Dilated fundus exam: The dilated fundus examination included ophthalmoscopic assessments of the vitreous, retina/macula/choroid, and optic nerve. Evaluations for retinal tear/detachment, retinal hemorrhage, vitreous hemorrhage density, vitreous haze grading and abnormal findings were done and scored according to grading criteria. • Ocular hyperemia: Conjunctival redness of the bulbar conjunctiva in each eye at the slit lamp according to the McMonnies redness scale was graded. […] By adjusting the calibrated slit beam width and height, the maximum horizontal (wound width) and vertical dimensions (wound height) of the surgical epithelial wound was estimated. The evaluation was performed until wound closure and report of wound size as 0 horizontal and 0 vertical dimensions. • Slit-lamp biomicroscopy: Ocular signs (eyelids/conjunctiva, cornea, lens, and iris/anterior chamber) was assessed in both eyes by slit lamp biomicroscopy according to the grading criteria. • Blink rate: A blink was defined as a bilateral paroxysmal closure of the eyelids (duration <1 second) in the absence of a provoking external stimulus. Each blink assessment lasted for 2 min (or as close to 2 minutes as possible with minimum time 1 minute) and the obtained blink rate was averaged to calculate blink rate in blinks/min. • Tear production (Schirmer's test without anesthesia): The test was performed without anesthetic in both eyes simultaneously. Tear secretion was measured in millimeters of the length of strip wetted by tears. […] The strip was wetted with 1 drop of sterile saline and flicked to remove excess saline. The patient blinked several times to ensure dispersion of the dye throughout the tear film prior to grading on a scale of 0-3 (0=Normal, No staining; 1=Mild, Superficial stippling micropunctate staining; 2=Moderate, Macropunctate staining with some coalescent areas and 3=Severe, Numerous coalescent macropunctate areas and/or patches) for each of 5 zones (central plus 4 quadrants).
Size of epithelial defect by slit lamp exam: In order to assess the rate of wound healing after administration of compound I, the size of the epithelial defect in both compound I and Vehicle treated populations was measured. The elliptical area of epithelial wound size was calculated as follows: Area (mm2)=width×height×pi, from the width and height of the epithelial defect measured at the slit lamp. The difference in epithelial wound area between compound I and Vehicle was not noticeably different at any time point except at Day 2 post-PRK surgery (all p-values for the difference in area was >0.35). On Day 2 (24 hours post-operative), the difference in average epithelial defect area between patients treated with compound I vs. Vehicle was 11.23 mm^2 (p value=0.034). This difference was not clinically significant in the immediate post-operative period. […]

[1] = First in human study, plasma pharmacokinetics; format: in vivo
Source text: Accumulation of compound I at steady-state was minor (˜1.7-fold) following administration of 0.15%, 1.5% or 2.5% suspension 4 times daily and also minor (˜1.3-fold) following 2.5% 8 times daily for 7 days.

[2] = PRK clinical study, residual compound I in bandage contact lens; format: in vivo, human; details: Day 4; for concentration at 4 day: human, bandage contact lens extract, topical, 0.925 mg, 0.55 mL extraction fluid
Procedure: Compound I was quantified in plasma using a validated LC-MS/MS method; the lower limit of quantification (LLOQ) was 0.05 ng/mL. Concentrations were expressed in ng per mL units. When feasible, bandage contact lenses (BCL) exposed to study drug were collected and analyzed for residual drug exposure after treatment (LLOQ: 5.00 ng/mL in 0.55 mL of extraction fluid, or 2.75 ng/BCL). Concentrations below the LLOQ were reported as “zero” and missing data were labeled as such.
Bandage Contact Lens (BCL) was collected from 40 patients on Day 4 of the dose administration and analyzed for compound I. Values from the three IMP non-compliant patients were excluded from BCL summary statistics, leaving 37 values evaluable, including one value from a patient without available plasma PK. The mean concentration of compound I (CV %) in 0.55 mL extraction fluid was 8500 ng/mL (73.1%), with a wide range of 284 to 22600 ng/mL. These concentrations translate to an estimated mean of 4680 ng/lens (0.55 mL×8500 ng/mL), and a range of 156 to 12400 ng/lens. The amount in BCL was very small in relation to the 0.925 mg dose of compound I administered: mean 0.51%, and range of 0.017% to 1.3% of dose.

PRK surgery patients = test: PRK clinical study, ocular safety assessments and vital signs; format: in vivo, human
Source text: as §1

[3] = across the scheduled time points

In the case of `CC(C)c1nc2cc(O)ccc2c(=O)n1-c1ccc(C#N)cc1` [Compound I, 4-(7-hydroxy-2-isopropyl-4-oxo-4H-quinazolin-3-yl)-benzonitrile], the “Epithelial Wound Size, Area, Difference compound I-Vehicle” value (epithelial wound; Day 1) is reported as 2.98 (27.33) mm^2, the “Epithelial Wound Size, Area, raw mean (SD)” value (shortened to “Epithelial Wound Size … (SD)”) (epithelial wound; Day 1) is reported as 220.15 (32.26) mm^2 and the “Epithelial Wound Size, Area, Difference compound I-Vehicle” value (epithelial wound; Day 2) is reported as 11.23 mm^2 and 11.23 (32.30) mm^2. For the same compound, the “Epithelial Wound Size … (SD)” value (epithelial wound; Day 2) was 83.02 (32.08) mm^2, the “Epithelial Wound Size, Area, Difference compound I-Vehicle” value (epithelial wound; Day 3) was 1.02 (8.78) mm^2 and the “Epithelial Wound Size … (SD)” value (epithelial wound; Day 3) was 6.75 (12.66) mm^2. For the same compound, the “Epithelial Wound Size, Area, Difference compound I-Vehicle” value (epithelial wound; Day 4) was 0.31 (2.11) mm^2, the “Epithelial Wound Size … (SD)” value (epithelial wound; Day 4) was 0.39 (2.04) mm^2 and the “Epithelial Wound Size, Area, Difference compound I-Vehicle” value (epithelial wound; Day 8) was 0.00 (0.00) mm^2. The “Epithelial Wound Size … (SD)” value (epithelial wound; Day 8) was 0.00 (0.00) mm^2, the “wound healing compared to Vehicle” value (epithelial wound; human, in vivo) was “no delay in wound healing” and the Accumulation at steady-state ([1]; 0.15%, 1.5% or 2.5% suspension 4 times daily) was ~1.7 fold. For the same compound, the Accumulation at steady-state ([1]; 2.5%, 8 times daily for 7 days) was ~1.3 fold, the “increase in systemic exposure with dose” value ([1]; increase in dose from 0.15% to 2.5%) was “less than dose-proportional increase” and the “amount in BCL in relation to the 0.925 mg dose, mean” value [2] was 0.51 % of dose. The “estimated mean amount in bandage contact lens” value [2] was 4680 ng/lens, the concentration at 4 day ([2]; read-out: concentration of compound I in bandage contact lens extract, range) was 284 to 22600 ng/mL and the concentration at 4 day ([2]; read-out: mean concentration of compound I in bandage contact lens extract) was 8500 ng/mL. For the same compound, the “Ocular hyperemia, grade 4 (McMonnies scale), versus Vehicle” value (PRK surgery patients; Day 2 postoperatively (24 hours after PRK surgery), all quadrants) was “less grade 4 hyperemia”, the “Ocular hyperemia, grade 3 (McMonnies scale), versus Vehicle” value (PRK surgery patients; Day 3 (48 hours post-operative)) was “less grade 3 hyperemia” and the Dilated fundus exam (PRK surgery patients; [3]) was “No abnormal findings”. The “Slit-lamp biomicroscopy: aqueous flare, inflammatory cell grade, iris/anterior chamber, lens” value (PRK surgery patients; [3]) was “No abnormalities were observed”, the “Corneal staining versus Vehicle” value (PRK surgery patients; baseline, Day 8, EOS visit) was “No clinical differences were observed” and the vital sign parameters (PRK surgery patients; during the study) was “within the normal range”. The “BCVA and UCVA versus Vehicle” value (PRK surgery patients; throughout the study) was “did not result in any trend or obvious difference”, the “Blink rate versus Vehicle” value (PRK surgery patients; throughout the study) was “no trend across the scheduled time points or obvious differences” and the “Intraocular pressure versus Vehicle” value (PRK surgery patients; throughout the study) was “No trend across the scheduled time points or obvious differences”.
